From ChEMBL document CHEMBL1800070, “Inhibition of a prolyl hydroxylase domain (PHD) by substrate analog peptides” (Bioorg Med Chem Lett, 2011)
Calls of active or inactive are those of the source. The calls are words filed in the database; no cut-off is given here.

Assays:
Egl nine homolog 1 [1] = biological target: T1, Egl nine homolog 1 (Homo sapiens, UniProt Q9GZT9); assay: Inhibition of GST-tagged PHD2 assessed as inhibition of hydroxylation of biotinylated HIF1alpha CODD peptide at 100 uM after 20 mins by MALDI-TOF technique in presence of 2-oxoglutarate
Target sequence in this assay (Q9GZT9 2-426 limits assumed): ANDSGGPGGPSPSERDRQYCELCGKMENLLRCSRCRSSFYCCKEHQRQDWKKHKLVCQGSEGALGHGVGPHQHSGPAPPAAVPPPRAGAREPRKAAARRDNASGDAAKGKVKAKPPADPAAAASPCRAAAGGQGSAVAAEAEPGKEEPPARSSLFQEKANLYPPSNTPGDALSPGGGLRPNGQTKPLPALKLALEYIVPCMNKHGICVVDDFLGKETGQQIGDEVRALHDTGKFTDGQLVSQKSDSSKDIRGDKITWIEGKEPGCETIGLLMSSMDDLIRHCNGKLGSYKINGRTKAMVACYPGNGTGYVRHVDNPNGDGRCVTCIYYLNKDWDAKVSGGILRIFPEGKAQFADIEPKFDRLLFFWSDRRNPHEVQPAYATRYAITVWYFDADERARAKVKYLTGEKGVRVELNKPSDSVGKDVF

[2] = biological target: Hypoxia-inducible factor 1-alpha inhibitor (Homo sapiens) (UniProt Q9NWT6); assay: Inhibition of FIH assessed as inhibition of hydroxylation of C-TAD peptide at 100 uM after 2 hrs by fluorescent polarization assay in presence of 2-oxoglutarate
Hypoxia-inducible factor 1-alpha inhibitor (Homo sapiens), sequence (Q9NWT6 whole entry): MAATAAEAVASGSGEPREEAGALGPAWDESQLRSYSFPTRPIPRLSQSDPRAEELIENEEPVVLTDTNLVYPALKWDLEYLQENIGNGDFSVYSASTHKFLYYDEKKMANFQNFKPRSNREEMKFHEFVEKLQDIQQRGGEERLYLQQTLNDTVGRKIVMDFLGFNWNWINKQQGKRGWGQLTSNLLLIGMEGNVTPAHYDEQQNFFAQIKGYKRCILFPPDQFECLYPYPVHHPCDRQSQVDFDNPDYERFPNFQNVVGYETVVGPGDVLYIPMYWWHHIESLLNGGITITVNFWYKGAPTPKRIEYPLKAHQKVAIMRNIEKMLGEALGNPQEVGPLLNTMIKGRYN

Egl nine homolog 1 [3] = biological target: T1, Egl nine homolog 1; assay: Inhibition of GST-tagged PHD2 assessed as inhibition of hydroxylation of fluorescein-labeled HIF1alpha CODD peptide at 100 uM after 2 hrs by fluorescent polarization assay in presence of 2-oxoglutarate
Target sequence in this assay (Q9GZT9 2-426 limits assumed): as the sequence (Q9GZT9 2-426 limits assumed) above

Egl nine homolog 1 [4] = biological target: T1, Egl nine homolog 1; assay: Inhibition of PHD2 in human HeLa cells assessed as stabilization of HIF1alpha at 1 mM incubated for 6 hrs under normoxic conditions by Western blot analysis relative to control; type: cell-based
Target sequence in this assay (Q9GZT9 2-426 limits assumed): as above

Egl nine homolog 1 [5] = biological target: T1, Egl nine homolog 1; assay: Competitive inhibition of GST-tagged PHD2 active site assessed as inhibition of hydroxylation of fluorescein-labeled HIF1alpha CODD peptide at 100 uM after 2 hrs by fluorescent polarization assay in presence of 2-oxoglutarate
Target sequence in this assay (Q9GZT9 2-426 limits assumed): as above

Egl nine homolog 1 [6] = biological target: T1, Egl nine homolog 1; assay: Inhibition of GST-tagged PHD2 assessed as inhibition of hydroxylation of fluorescein-labeled HIF1alpha CODD peptide after 1 hr by fluorescent polarization assay in presence of 2-oxoglutarate
Target sequence in this assay (Q9GZT9 whole entry): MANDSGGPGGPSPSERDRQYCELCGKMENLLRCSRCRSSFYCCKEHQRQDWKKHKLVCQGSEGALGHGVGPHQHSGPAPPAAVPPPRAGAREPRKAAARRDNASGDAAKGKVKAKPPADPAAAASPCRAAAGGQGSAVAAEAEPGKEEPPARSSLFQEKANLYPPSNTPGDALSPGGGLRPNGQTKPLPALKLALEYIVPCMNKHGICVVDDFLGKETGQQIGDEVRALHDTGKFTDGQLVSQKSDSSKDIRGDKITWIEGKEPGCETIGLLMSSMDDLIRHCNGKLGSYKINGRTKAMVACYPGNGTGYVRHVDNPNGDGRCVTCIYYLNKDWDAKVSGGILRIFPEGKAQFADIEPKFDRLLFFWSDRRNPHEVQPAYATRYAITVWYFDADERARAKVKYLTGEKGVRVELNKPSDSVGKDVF

Egl nine homolog 1 [7] = biological target: T1, Egl nine homolog 1; assay: Inhibition of PHD2 in human HeLa cells assessed as stabilization of HIF1alpha at 100 uM incubated for 6 hrs under normoxic conditions by Western blot analysis relative to control; type: cell-based
Target sequence in this assay (Q9GZT9 2-426 limits assumed): as the sequence (Q9GZT9 2-426 limits assumed) above

Egl nine homolog 1 [8] = biological target: T1, Egl nine homolog 1; assay: Competitive inhibition of GST-tagged PHD2 active site assessed as inhibition of hydroxylation of fluorescein-labeled HIF1alpha CODD peptide at 200 uM after 2 hrs by fluorescent polarization assay in presence of 2-oxoglutarate
Target sequence in this assay (Q9GZT9 2-426 limits assumed): as above

Row | inhibition (active/inactive call) (Egl nine homolog 1 [1]) | inhibition [2] | inhibition (Egl nine homolog 1 [3]) | Activity (Egl nine homolog 1 [4]) | inhibition (Egl nine homolog 1 [5]) | IC50 (Egl nine homolog 1 [6]) [µM] | Activity (Egl nine homolog 1 [7]) | inhibition (Egl nine homolog 1 [8]) | SMILES
1 | Active | Active | Active | Active | inactive | 8.5 | – | – | O=C(O)[C@@H]1C=CCN1
2 | inactive | – | – | – | – | – | – | – | O=C(O)[C@@H]1C[C@@H](O)CN1
3 | – | Active | – | – | – | – | Active | Active | O=c1cc(-c2ccccc2)oc2cc(O)c(O)c(O)c12
4 | Active | Active | Active | – | inactive | 69.7 | – | – | O=C(O)[C@@H]1CC(=S)CN1
5 | inactive | – | – | – | – | – | – | – | O=C(O)[C@@H]1C[C@@H](F)CN1
